Results as given in patent US20230057621A1 (priority 2019, published 2023).

Columns and labels:
Type in all cases: cell-based
[1] = test system: pseudorabies virus
[2] = test system: pseudorabies virus; remark: listed apart in the source
[3] = test system: EB virus

`CC(C)(C)C(=O)OCOP(=O)(COCCn1cnc2c(N)ncnc21)OCOC(=O)C(C)(C)C` [adefovir dipivoxil] was tested, and the “inhibition of the release of pseudorabies virus from cells” value [1] was “can significantly inhibit the release of pseudorabies virus from cells”, the “EC50 for the inhibition against pseudorabies virus proliferation” value [2] was “reaches nanomolar level” and the “inhibitory effect on pseudorabies virus replication and proliferation” value [2] was “can significantly inhibit the replication and proliferation of pseudorabies virus”. The “inhibitory activity against EB virus replication” value [3] was “no inhibitory activity against EB virus”.
